22 compounds from patent US5116833A, “Antibiotic C-3 dithioacetal-substituted carbapenem compounds, compositions, and methods of use thereof” (Bristol-Myers Squibb Company, priority 1990, dated 1992) can be followed below.

Data set [1] can be described thus: Half-life (T1/2) in solution at stated pH (chemical stability). It is filed as physicochemical.
A further data set has as its system Str. Pneu. A9525. The experiment in a line: Minimal Inhibitory Concentration, microtiter broth dilution, Str. Pneu. A9525. It is filed as cell-based. Particulars: Nutrient broth, approximately 500,000 CFU/ml, 35° C. overnight. The text has this:
(§1) In order to illustrate the potent antibacterial activity and significant oral bioavailability of the carbapenems of the present invention, Tables I, II and III show data for in vitro activities (MIC), oral in vivo activities (PD50) and blood levels after oral administration of the representative drugs (Cmax, t1/2 and AUC), respectively.
(§2) The determination was done by using microtiter broth dilution using Nutrient broth and final bacterial inoculum of approximately 500,000 CFU/ml from overnight cultures of the bacterium. The microtiter trays were then incubated at 35° C. overnight. The MIC's were determined in μg/ml as the lowest concentration of the drug which inhibits visible growth of the bacterium.

The next data set concerns Staph. aur. PenR. The experiment in a line: Minimal Inhibitory Concentration, microtiter broth dilution, Staph. aur. PenR. It counts as cell-based. To be noted: Nutrient broth, approximately 500,000 CFU/ml, 35° C. overnight.
From the text: as §1, §2

For another data set, the system named is E. coli A15119. The experiment in a line: Minimal Inhibitory Concentration, microtiter broth dilution, E. coli A15119. It counts as cell-based. To be noted: Escherichia coli, Nutrient broth, approximately 500,000 CFU/ml, 35° C. overnight.
From the text: as §1, §2

A further data set has as its system Ps. aeur. A9843. In words: Minimal Inhibitory Concentration, microtiter broth dilution, Ps. aeur. A9843. It is filed as cell-based. To be noted: Nutrient broth, approximately 500,000 CFU/ml, 35° C. overnight.
From the text: as §1, §2
(In general: In broth dilution the organism is exposed to a series of concentrations in liquid medium.)

The next data set concerns S. pneumoniae A-9585. The experiment in a line: Protective effect in the oral treatment of infected mice, S. pneumoniae A-9585. It counts as in vivo. To be noted: Streptococcus pneumoniae, A9585, intraperitoneal challenge S. pneumoniae A-9585, 5 × 10^3 organisms, read-out: PD50/Treatment. Here is the method: as §1
(§3) The in vivo therapeutic efficacy of the representative compounds after oral administration to mice infected intraperitoneally with 0.5 ml of various bacterial suspension is shown in Table II. The values are given in PD50 (dose in mg/kg to give protection to 50% of the infected mice).

A further data set deals with E. coli A-15119. The experiment in a line: Protective effect in the oral treatment of infected mice, E. coli A-15119. It is filed as in vivo. To be noted: Escherichia coli, A15119, intraperitoneal challenge E. coli A-15119, 6 × 10^6 organisms, read-out: PD50/Treatment. Here is the method: as §1, §3
Data set [2] is described as follows: Blood levels and half-life after oral administration in mice. It counts as in vivo. To be noted: mouse, 50 mg/kg. The protocol:
In order to illustrate the potent antibacterial activity and significant oral bioavailability of the carbapenems of the present invention, Tables I, II and III show data for in vitro activities (MIC), oral in vivo activities (PD50) and blood levels after oral administration of the representative drugs (Cmax, t1/2 and AUC), respectively. Blood levels and the half-life of selected compounds of the present invention after oral administration at 50 mg/kg in mice is shown in Table III.

The subject of another data set is P. mirabalis A-9900. In words: Protective effect in the oral treatment of infected mice, P. mirabalis A-9900. It counts as in vivo. To be noted: Mus musculus, intraperitoneal challenge P. mirabalis A-9900, 4 × 10^6 organisms, read-out: PD50/Treatment. The protocol: as §1, §3

Converted amounts (≈) assume the structure as drawn.

On to `C[C@@H](O)[C@H]1C(=O)N2C(C(=O)O)=C(SCSc3ccncc3)C[C@H]12` [Ic, Potassium or sodium (5R,6S)-6-[1'(R)-hydroxyethyl]-3-[[[(pyridin-4-yl)thio]methyl]thio]-7-oxo-1-azabicyclo[3.2.0]hept-2-ene-2-carboxylate], for which, in [1] (pH 7.4), the half-life is 900 min.
Take `C[C@@H](O)[C@H]1C(=O)N2C(C(=O)O)=C(SCSc3c(F)c(F)c(F)c(F)c3F)[C@H](C)[C@H]12` [Ir, Sodium (4R,5S,6S)-6-[1'(R)-hydroxyethyl]-4-methyl-3-[[[(2,3,4,5,6-pentafluorophenyl)thio]methyl]thio]-7-oxo-1-azabicyclo[3.2.0]hept-2-ene-2-carboxylate]: in [1] (pH 7.4, 37° C.), the half-life is 2460 min.
In turn, `C[C@@H](O)[C@H]1C(=O)N2C(C(=O)O)=C(SCSc3ccncc3)[C@H](C)[C@H]12` [Ig, (4R,5S,6S)-6-[1'(R)-hydroxyethyl]-4-methyl-3-[[[(pyridin-4-yl)thio]methyl]thio]-7-oxo-1-azabicyclo[3.2.0]hept-2-ene-2-carboxylate] came in with a half-life in [1] (pH 2) of 34 min.
Turning to `C[C@@H](O)[C@H]1C(=O)N2C(C(=O)O)=C(SCSc3ccccc3)[C@H](C)[C@H]12` [Id, (4R,5S,6S)-6-[1'(R)-hydroxyethyl]-4-methyl-3-[[(phenylthio)methyl]thio]-7-oxo-1-azabicyclo[3.2.0]hept-2-ene-2-carboxylate], the half-life in data set [1] (pH 2) was 18.8 min; in data set [1] (pH 7.4), 6000 min.
Regarding `Cc1nnc(SCSC2=C(C(=O)O)N3C(=O)[C@H]([C@@H](C)O)[C@H]3[C@H]2C)s1` [Idd, (4R,5S,6S)-6-[1'(R)-hydroxyethyl]-4-methyl-3-[[[(5-methyl-1,3,4-thiadiazol-2-yl)thio]methyl]thio]-7-oxo-1-azabicyclo[3.2.0]hept-2-ene-2-carboxylate], the MIC against Str. Pneu. A9525 came out at 1 ng/mL (≈ 0.00258 µM); in the data set on Staph. aur. PenR it was 0.016 µg/mL (≈ 0.0413 µM); against E. coli A15119 it was 8 ng/mL (≈ 0.0206 µM); with Ps. aeur. A9843, 32 µg/mL (≈ 82.6 µM). The ED50 in the data set on S. pneumoniae A-9585 was 0.3 mg/kg; in the data set with E. coli A-15119, 3.85 mg/kg. In data set [2], this compound came in with an AUC of 10000 ng·h/mL. This compound displayed a peak concentration (Cmax) in [2] of 12000 ng/mL. The compound further registered a half-life in data set [2] of 24 min.
`C[C@@H](O)[C@H]1C(=O)N2C(C(=O)O)=C(SCSc3ccccn3)[C@H](C)[C@H]12` [If, Sodium (4R,5S,6S)-6-[1'(R)-hydroxyethyl]-4-methyl-3-[[[(pyridin-2-yl)thio]methyl]thio]-7-oxo-1-azabicyclo[3.2.0]hept-2-ene-2-carboxylate]: the half-life is 36 min in data set [1] (pH 2) and 4740 min in [1] (pH 7.4).
The corresponding values for `C[C@@H](O)[C@H]1C(=O)N2C(C(=O)O)=C(SCSc3cccnc3)[C@H](C)[C@H]12` [Ii, (4R,5S,6S)-6-[1'(R)-hydroxyethyl]-4-methyl-3-[[[(pyridin-3-yl)thio]methyl]thio]-7-oxo-1-azabicyclo[3.2.0]hept-2-ene-2-carboxylate] are 35 min and 4440 min.
In the case of `C[C@@H](O)[C@H]1C(=O)N2C(C(=O)O)=C(SCSc3ccc(C(=O)NN)cc3)[C@H](C)[C@H]12` [Ibb, (4R,5S,6S)-3-[[[[(p-hydrazinocarbonyl)phenyl]thio]methyl]thio]-6-[1'(R)-hydroxyethyl]-4-methyl-7-oxo-1-azabicyclo[3.2.0]hept-2-ene-2-carboxylate], the ED50 with S. pneumoniae A-9585 worked out at 16.5 mg/kg. In [2], the maximum concentration (Cmax) is less than 1000 ng/mL.
With `C[C@@H](O)[C@H]1C(=O)N2C(C(=O)O)=C(SCSc3ccc(Cl)cc3)[C@H](C)[C@H]12` [Ik, (4R,5S,6S)-6-[1' (R)-hydroxyethyl]-4-methyl-3-[[[(p-chlorophenyl)thio]methyl]thio]-7-oxo-1-azabicyclo[3.2.0]hept-2-ene-2-carboxylate], the figures for the half-life in data set [1] (pH 7.4) and in data set [2] were 5820 min and 33 min, respectively. The minimum inhibitory concentration (MIC) was found to be 4 ng/mL (≈ 0.01 µM) against Str. Pneu. A9525, 0.03 µg/mL (≈ 0.075 µM) against Staph. aur. PenR, 2000 ng/mL (≈ 5 µM) with E. coli A15119 and 63 µg/mL (≈ 158 µM) against Ps. aeur. A9843. This compound also had an AUC in data set [2] of 34000 ng·h/mL. This compound showed a Cmax in data set [2] of 40000 ng/mL.
For the compound `C[C@@H](O)[C@H]1C(=O)N2C(C(=O)O)=C(SC[S+](C)[O-])[C@H](C)[C@H]12` (some centres unmarked) [Im], the half-life in [1] (pH 7.4) is 2760 min.
In turn, `C[C@@H](O)[C@H]1C(=O)N2C(C(=O)O)=C(SCSCc3cccnc3)[C@H](C)[C@H]12` [Io, (4R,5S,6S)-6-[1'(R)-hydroxyethyl]-4-methyl-3-[[[[(pyridin-3-yl)methyl]thio]methyl]thio]-7-oxo-1-azabicyclo-[3.2.0]hept-2-ene-2-carboxylate] showed a half-life in data set [1] (pH 7.4, 37° C.) of 4620 min.
For `CSCSC1=C(C(=O)O)N2C(=O)[C@H]([C@@H](C)O)[C@H]2[C@H]1C` [Ib''], the half-life was 18.8 min in [1] (pH 2), 4500 min in [1] (pH 7.4) and 25 min in [2]. Also, the ED50 with S. pneumoniae A-9585 came to 1.4 mg/kg; in the data set on E. coli A-15119 it was 3.5 mg/kg; in the data set on P. mirabalis A-9900, 3.6 mg/kg. The AUC in data set [2] came out at 21000 ng·h/mL. Besides, the concentration in [2] peaked (Cmax) at 27000 ng/mL.
Take `C[C@@H](O)[C@H]1C(=O)N2C(C(=O)O)=C(SCSc3ccc(Cl)c(Cl)c3)[C@H](C)[C@H]12` [Iq, (4R,5S,6S)-3-[[[(3,4-dichlorophenyl)thio]methyl]thio]-6-[1'(R)-hydroxyethyl]-4-methyl-7-oxo-1-azabicyclo-[3.2.0]hept-2-ene-2-carboxylate]: the half-life in data set [1] (pH 7.4, 37° C.) is 5940 min. In addition, the ED50 in the data set with E. coli A-15119 is 25 mg/kg. In [2], the exposure (AUC) came to 24000 ng·h/mL, the peak level (Cmax) was 33000 ng/mL and the half-life amounted to 25 min.
As for `CSC(C)SC1=C(C(=O)O)N2C(=O)[C@H]([C@@H](C)O)[C@H]2[C@H]1C` (single isomer, unassigned) [Iv-B], the T1/2 in [1] (pH 2, 37° C.) came to 20 min. The same compound had a half-life in data set [1] (pH 7.4, 37° C.) of 3360 min.
Compound `C[C@@H](O)[C@H]1C(=O)N2C(C(=O)O)=C(SCSc3ccc(Cl)cc3)C[C@H]12` [Ij, (5R,6S)-6-[1'(R)-hydroxyethyl]-3-[[[(p-chlorophenyl)thio]methyl]thio]-7-oxo-1-azabicyclo[3.2.0]hept-2-ene-2-carboxylate] had a half-life in data set [1] (pH 7.4) of 1560 min.
With `C[C@@H](O)[C@H]1C(=O)N2C(C(=O)O)=C(SC[S+]([O-])c3ccc(Cl)cc3)[C@H](C)[C@H]12` (stereo partly drawn) [In, (4R,5S,6S)-3-[[[(p-chlorophenyl)sulfinyl]methyl]thio]-6-[1'(R)-hydroxyethyl]-4-methyl-7-oxo-1-azabicyclo[3.2.0]hept-2-ene-2-carboxylate], the half-life in data set [1] (pH 7.4, 37° C.) was 6360 min.
Regarding `CSC(C)SC1=C(C(=O)O)N2C(=O)[C@H]([C@@H](C)O)[C@H]2[C@H]1C` (single isomer, unassigned) [Iv-A], in [1] (pH 2, 37° C.), the half-life turned out to be 20 min.
As to `Cc1nnc(SCSC2=C(C(=O)O)N3C(=O)[C@H]([C@@H](C)O)[C@H]3[C@H]2C)o1` [Icc, (4R,5S,6S)-6-[1'(R)-hydroxyethyl]-4-methyl-3-[[[(5-methyl-1,3,4-oxadiazol-2-yl)thio]methyl]thio]-7-oxo-1-azabicyclo-[3.2.0]hept-2-ene-2-carboxylate], the MIC in the data set with Str. Pneu. A9525 was 1 ng/mL (≈ 0.00269 µM); against Staph. aur. PenR, 0.03 µg/mL (≈ 0.0808 µM); in the data set with E. coli A15119 it was 4 ng/mL (≈ 0.0108 µM); with Ps. aeur. A9843 it was 32 µg/mL (≈ 86.2 µM). Further, the ED50 in the data set with S. pneumoniae A-9585 stood at 0.2 mg/kg; in the data set with E. coli A-15119 it was 1.4 mg/kg. For the same compound, the AUC in data set [2] worked out at 11000 ng·h/mL. For the same compound, the highest level in [2] (Cmax) was 20000 ng/mL. The compound further showed a half-life in [2] of 14 min.
As for `C[C@@H](O)[C@H]1C(=O)N2C(C(=O)O)=C(SCSc3cccnc3)C[C@H]12` [Ih, Sodium (5R,6S)-6-[1'(R)-hydroxyethyl]-3-[[[(pyridin-3-yl)thio]methyl]thio]-7-oxo-1-azabicyclo[3.2.0]hept-2-ene-2-carboxylate], the half-life in data set [1] (pH 2) was 2 min; in [1] (pH 7.4) it was 1320 min.
For `CSCSC1=C(C(=O)O)N2C(=O)[C@H]([C@@H](C)O)[C@H]2C1` [Ia, Potassium or Sodium (5R,6S)-6-[1'(R)-hydroxyethyl]-3-[[(methylthio)methyl]thio]-7-oxo-1-azabicyclo[3.2.0]hept-2-ene-2-carboxylate], the half-life in data set [1] (pH 7.4) was 1200 min.
In turn, `C[C@@H](O)[C@H]1C(=O)N2C(C(=O)O)=C(SCSc3ccccn3)C[C@H]12` [Ie, Sodium (5R,6S)-6-[1'(R)-1-hydroxyethyl]-3-[[[(pyridin-2-yl)thio]methyl]thio]-7-oxo-1-azabicyclo[3.2.0]hept-2-ene-2-carboxylate] gave a half-life in [1] (pH 7.4) of 1140 min.
`C[C@@H](O)[C@H]1C(=O)N2C(C(=O)O)=C(SC[S+]([O-])Cc3cccnc3)[C@H](C)[C@H]12` (stereo partly drawn) [Ip, (4R,5S,6S)-6-[1'(R)-hydroxyethyl]-4-methyl-3-[[[[(pyridin-3-yl)methyl]sulfinyl]methyl]thio]-7-oxo-1-azabicyclo[3.2.0]hept-2-ene-2-carboxylate] gave a half-life in data set [1] (pH 7.4, 37° C.) of 2580 min.

In general, half-life refers to the time needed for the level to fall by half in the phase considered. Low readings indicate fast loss, high ones slow loss. As a reminder, the MIC is the smallest concentration in the dilution series that meets the test's criterion for growth inhibition. By AUC is commonly meant concentration integrated over time. The term Cmax denotes the highest concentration seen after dosing.
